Laboratory results from US7884136B2, “Modified-release formulations of a bupropion salt” (Biovail Laboratories International S.R.L., priority 2005, dated 2011).
Like-named read-outs stand apart in the source and are kept apart here. Marks after values point to notes of the source that are not given here.

Experiments:
[1] = Moisture content of bupropion salts by KF; assay type: physicochemical; conditions: for KF (moisture content), Original (Initial APIs): original API salts
Protocol: (§1) The eight salts were first evaluated by HPLC, KF, pH and DSC for purity, water content, aqueous pH and possible polymorphs.
(§2) The salts were analysed by DSC (at 10° C./min from 30° C. up to 400° C.) and the pH (aq. 0.5%), and the moisture content by KF were also measured. The TGA was performed on the HCl, maleate, tosylate and HBr salts.

[2] = Comparative forced degradation of bupropion HCl and HBr API salts, closed glass bottle, 40° C./75% RH, HPLC; assay type: physicochemical; conditions: closed glass bottle
Protocol: Further stability tests were performed by directly comparing bupropion HBr and bupropion HCl salts in forced degradation studies. […] At specified times, the material in the bottles was analyzed for the presence of degradation products and % potency (% assay).
The samples were exposed to the above conditions in a closed bottle for few days, and then subjected to HPLC analysis. The amount of the main degradation products present after treatment were compared with those amounts that were present initially.
The samples were analysed after 14 and 24 days (study-1) and 10 days (study II), in a quantitative manner by direct treatment of the whole content of the bottle as per the HPLC standard test method (P05.901.10).

[3] = pH of 0.5% aqueous solution of bupropion salts; assay type: physicochemical; conditions: for pH (aq. 0.5%), Original (Initial APIs): original API salts
Protocol: as §1, §2

[4] = TGA experiment at 100° C., loss of API salt over time; assay type: physicochemical; conditions: TGA at 100° C.
Protocol: The average weight of the excipients and the weight of the active pharmaceutical ingredient (API) present in the samples are presented in Table 72. […] FIG. 53 is a graph showing the loss of each salt over time in a TGA experiment at 100° C.

[5] = Forced degradation stability study of bupropion salts spiked with placebo/excipients, closed vials, 40° C./75% RH, HPLC assay and impurities
Protocol: The stability of the salts was evaluated based on the formation of the main degradation products (see below) as determined by HPLC analysis and the % potency (or assay) of the API, after specific time periods in the stability chamber. The effect of the addition of solvents, such as water, ethanol and isopropyl alcohol, was also studied.
The samples of each salt and the spiked salts with the bupropion HCl XL were prepared under the conditions mentioned in Table 4. […] The stability of the bupropion salts were evaluated based on the formation of the main degradation product 3-chlorobenzoic acid (3-CBZ) and the intermediate degradation products diketone 827U76 and the ketohydroxyl derivatives (20U78 and 852U77) (Scheme 2).
As mentioned above, the stability samples were prepared in 2 mL vials and used directly for assay and impurity analysis by HPLC without further sample preparations to minimize errors.

[6] = Thermal analysis by TGA of bupropion salts; assay type: physicochemical; conditions: for TGA: weight lost between room temperature and 100° C.: room temperature to 100° C.
Protocol: 2-5 mg of each salt was placed in an aluminium pan and covered with its lid. DSC was run for each sample at the rate of 10° C./min (for HBr salt, different rates were used to investigate for polymorphs) from 30° C. to 400° C. TGA was also used for each of the HBr, HCl, maleate and tosylate salts.
as §2

[7] = Solubility of Bupropion HBr vs Bupropion HCl in water, EtOH, IPA; assay type: physicochemical
[8] = Release of bupropion base from bupropion HCl and HBr; assay type: physicochemical; conditions: 150 mg of the salt tested
Protocol: It was previously observed that when 150 mg of bupropion HCl was tested for its release of bupropion, the base value that was released was 130 mg.

[9] = Stability of bupropion HBr polymorphic forms I, II and III by PXRD under ICH conditions; assay type: physicochemical; conditions: hydrobromide; for PXRD profile / crystalline form after storage (words): ICH conditions 40° C./75% r.h., 1 month
Protocol: It is well known that organic molecules can crystallize into solid forms. Moreover the same organic compound may assume different crystalline arrangements in solid form, depending on the conditions under which the crystal product is formed. This phenomenon is commonly known as polymorphism. […] The crystal forms of the products obtained in this study were determined by powder X-ray diffraction (PXRD). A RIGAKU miniflex instrument (Radiation Cu K∝, generator 30 KV, filter Ni) was used to obtain the PXRD data.
The three polymorphic forms were subjected to stability testing. […] Samples of the polymorphic forms II and III were tested after 1 month under the same accelerated stability conditions.
Samples of bupropion HBr form I were subjected to the conditions for the accelerated stability study as described in Example 10 and the shelf life stability study as described in Example 11.
10 g of bupropion HBr form I were dissolved in a mixture of 170 ml of acetone and 7 ml of water. The mixture was brought to reflux with dissolution of the solid. The solution was then cooled to room temperature. After one night the precipitate formed was filtered and dried at 40° C. under vacuum (30 mmHg) for 12 hours. […] The crystalline form was checked after maintaining the product under these conditions for 1 month.
The mixture was brought to reflux obtaining complete dissolution of the solid. The solution was then cooled to room temperature without stirring and left in these conditions for 18 hours. The resulting crystalline solid was then filtered and dried under vacuum (30 mmHg) at 50° C. for 4 hours. […] The crystalline form was checked after maintaining the product in these conditions for 1 month.

[10] = repeat study, 40 C/75% RH, 10 Days, Lot# STN06973, hydrochloride
[11] = repeat study, 40 C/75% RH, 10 Days, Lot# STN06978, hydrochloride
[12] = repeat study, 40 C/75% RH, Initial, Lot# STN06973, hydrochloride
[13] = repeat study, 40 C/75% RH, Initial, Lot# STN06978, hydrochloride
[14] = In IPA/EtOH, 32 days, closed vials
[15] = In water, 32 days, closed vials

CC(NC(C)(C)C)C(=O)c1cccc(Cl)c1.Cl (racemic) [Bupropion HCl, (±)-1-(3-chlorophenyl)-2-[(1,1-dimethylethyl)amino]-1-propanone hydrochloride, reference compound]
Moisture Content (KF) ([1]; Table 3, supplier API): 0.01% | KF (moisture content), Original (Initial APIs) [1]: 0.0% | % Assay ([2]; 40° C./75% RH, 14-Days): 98.5% | % Impurities 3-CBZ ([2]; 40° C./75% RH, 14-Days): 0.019% | % Impurities 20U78/dilu ([2]; 40° C./75% RH, 14-Days): 0.038% | % Impurities 852U77 ([2]; 40° C./75% RH, 14-Days): 0.010% | % Impurities Total unknown ([2]; 40° C./75% RH, 14-Days): 0.038% | Total (%) impurities ([2]; 40° C./75% RH, 14-Days): 0.11% | % Assay ([2]; 40° C./75% RH, 24 Days): 98.5% | % Impurities 3-CBZ ([2]; 40° C./75% RH, 24 Days): 0.082% | % Impurities 20U78/dilu ([2]; 40° C./75% RH, 24 Days): 0.040% | % Impurities 827U76 ([2]; 40° C./75% RH, 24 Days): 0.102% | % Impurities 852U77 ([2]; 40° C./75% RH, 24 Days): 0.023% | % Impurities Total unknown ([2]; 40° C./75% RH, 24 Days): 0.049% | Total (%) impurities ([2]; 40° C./75% RH, 24 Days): 0.30% | % Assay ([2]; 40° C./75% RH, Initial): 100.4% | % Impurities 3-CBZ ([2]; 40° C./75% RH, Initial): 0.002% | % Impurities 20U78/dilu ([2]; 40° C./75% RH, Initial): 0.043% | % Impurities 852U77 ([2]; 40° C./75% RH, Initial): 0.003% | % Impurities Total unknown ([2]; 40° C./75% RH, Initial): 0.044% | Total (%) impurities ([2]; 40° C./75% RH, Initial): 0.09% | % Assay [2, 10]: 96.3% | % Impurities 3-CBZ [2, 10]: 0.110% | % Impurities 20U78/dilu [2, 10]: 0.047% | % Impurities 827U76 [2, 10]: 0.045% | % Impurities 852U77 [2, 10]: 0.047% | % Impurities Total unknown [2, 10]: 0.187% | Total (%) impurities [2, 10]: 0.44% | % Assay [2, 11]: 96.5% | % Impurities 3-CBZ [2, 11]: 0.278% | % Impurities 20U78/dilu [2, 11]: 0.057% | % Impurities 827U76 [2, 11]: 0.141% | % Impurities 852U77 [2, 11]: 0.124% | % Impurities Total unknown [2, 11]: 0.137% | Total (%) impurities [2, 11]: 0.74% | % Assay [2, 12]: 99.4% | % Impurities 3-CBZ [2, 12]: 0.003% | % Impurities 20U78/dilu [2, 12]: 0.040% | % Impurities Total unknown [2, 12]: 0.053% | Total (%) impurities [2, 12]: 0.10% | % Assay [2, 13]: 99.1% | % Impurities 3-CBZ [2, 13]: 0.002% | % Impurities 20U78/dilu [2, 13]: 0.04% | % Impurities Total unknown [2, 13]: 0.165% | Total (%) impurities [2, 13]: 0.21% | pH (aq. 0.5%), Original (Initial APIs) ([3]; 0.5% aqueous solution): 5.90 | pH (aq. 0.5%) ([3]; Table 3, supplier API): 5.90 | Disproportionation of the salt at elevated temperature [4]: disproportionation of the HCl salt occurs with concomitant loss of gaseous HCl | Order of stability (assay) with IPA & EtOH ([5]; DS and excipients spiked with IPA & EtOH, 32 days, closed vials, 40° C.): HCl>HBr>tosylate>maleate>fumarate | Order of stability (assay) with water ([5]; DS and excipients spiked with water, 32 days, closed vials, 40° C.): tosylate>maleate>HCl>HBr>fumarate | Content of impurity 3-CBZ, order of salts [5, 14]: maleate > HBr > HCl > Fumarate | Content of impurity 852U77, order of salts [5, 14]: fumarate > HBr ≈ HCl ≈ maleate ≈ tosylate | Total imp., order of salts [5, 14]: fumarate > maleate > HBr > HCl > tosylate | Content of impurity 3-CBZ, order of salts [5, 15]: HCl > HBr ≈ maleate ≈ fumarate | Content of impurity 852U77, order of salts [5, 15]: fumarate > HBr > maleate > HCl | Total imp., order of salts [5, 15]: fumarate > HBr > HCl > tosylate > maleate | Order of stability (assay, % potency) ([5]; salt plus excipients, 20 days, closed vial, 40° C./75% RH): HBr>HCl=tosylate>fumarate>maleate | TGA: residue at 400° C. [6]: minimal residues | solubility ([7]; ethanol, organic solvent or mixture, EtOH, read-out: Solubility, EtOH): 80 mg/mL | solubility ([7]; isopropanol, organic solvent or mixture, IPA, read-out: Solubility, IPA): 10 mg/mL | solubility ([7]; water, read-out: Solubility, Water): 270 mg/mL | Base value of bupropion released [8]: 130 mg

Br.CC(NC(C)(C)C)C(=O)c1cccc(Cl)c1 (stereo not shown) [Form III, bupropion hydrobromide]
Stability of the polymorphic form (words) ([9]; ICH conditions 40° C., 75% R.H., listed as form III): not as stable as forms I and II | PXRD profile / crystalline form after storage (words) ([9]; listed as bupropion HBr form III): the majority of the product changed to form II | PXRD profile / crystalline form after storage (words) ([9]; listed as form III): conversion to form II

Bupropion maleate
KF (moisture content), Original (Initial APIs) [1]: 0.10% | pH (aq. 0.5%), Original (Initial APIs) ([3]; 0.5% aqueous solution): 4.29 | Content of impurity 3-CBZ, order of salts [5, 14]: maleate > HBr > HCl > Fumarate | Content of impurity 852U77, order of salts [5, 14]: fumarate > HBr ≈ HCl ≈ maleate ≈ tosylate | Total imp., order of salts [5, 14]: fumarate > maleate > HBr > HCl > tosylate | Content of impurity 3-CBZ, order of salts [5, 15]: HCl > HBr ≈ maleate ≈ fumarate | Content of impurity 852U77, order of salts [5, 15]: fumarate > HBr > maleate > HCl | Total imp., order of salts [5, 15]: fumarate > HBr > HCl > tosylate > maleate | TGA: residue at 400° C. [6]: minimal residues | TGA: thermally stable to at least ([6]; TGA): at least 150 °C | TGA: weight lost between room temperature and 100° C. [6]: 1.3%

Bupropion tosylate
KF (moisture content), Original (Initial APIs) [1]: 1.71% | KF (moisture content), Original (Initial APIs) ([1]; listed as Bup-Tosylate): 1.71* % | KF, After recrystallization (R&D), Tested after 2 Months ([1]; re-crystallized salt, 2 months): 0.18% | KF, After recrystallization (R&D), Tested after 1 day ([1]; re-crystallized salt): 0.23% | KF, After recrystallization (R&D), Tested after 1 day ([1]; re-crystallized salt, listed as Bup-Tosylate): 023% | pH (aq. 0.5%), Original (Initial APIs) ([3]; 0.5% aqueous solution): 5.56 | pH (aq. 0.5%), After recrystallization (R&D), Tested after 1 day ([3]; re-crystallized salt, 0.5% aqueous solution): 5.88 | Content of impurity 852U77, order of salts [5, 14]: fumarate > HBr ≈ HCl ≈ maleate ≈ tosylate | Total imp., order of salts [5, 14]: fumarate > maleate > HBr > HCl > tosylate | Total imp., order of salts [5, 15]: fumarate > HBr > HCl > tosylate > maleate | TGA: residue at 400° C. [6]: 10.3% | TGA: weight lost between room temperature and 100° C. [6]: 1.3%
